Measured values as given in patent US9586959B2, “Substituted tricyclic heterocycles as histamine 4 receptor inhibitors” (C&C RESEARCH LABORATORIES, priority 2011, dated 2017).

These compounds were tested against human histamine 3 receptor (hH3R) (Homo sapiens (Human), UniProt Q9Y5N1) (assay: Binding affinity of human histamine 3 receptor (hH3R), [3H] labeled N-α-methylhistamine displacement). Settings: hH3R-overexpressed cell membrane, [3H] N-α-methylhistamine.
Method: 10 μL of the prepared compound solution was allocated in each well of a 96-well plate, and then 10 μL of 200 μM (R)(−)-α-methylhistamine (RaMH) diluted with analysis buffer and 1% of DMSO were transferred to each well to calculate non-specific binding and total binding degree. 15 μg of human histamine 3 receptor-overexpressed cell membrane (PerkinElmer) was diluted with 180 μL of analysis buffer solution (50 mM tris-HCl pH 7.4, 5 mM MgCl2), and that was transferred to each well. [^3H] labeled Na-methylhistamine (PerkinElmer) was diluted into […], 10 μL of that was added to each well, and then it was kept in a 27° C. incubator for 30 minutes. After the reaction, 200 μL of the mixture was transferred to a glass fiber plate in which 0.5% polyethylene amine was presoaked, and then non-binding [^3H] labeled Na-methylhistamine was removed in vacuum. After 5 times washing with 200 μL of washing buffer solution (50 mM tris-HCl, pH 7.4), the plate was dried in a 37° C. oven for 18 hours. 100 μL of betascint cocktail solution was added to each well, and after 1 hour CPM of [^3H] labeled N-α-methylhistamine was measured by using Wallac beta-counter TriLux. The binding affinity (IC50) of the human histamine 3 receptor for the present invention was analyzed by an Excel program, and the results of analysis are shown in Table 2.

Chain of human histamine 3 receptor (hH3R) (Q9Y5N1 whole entry): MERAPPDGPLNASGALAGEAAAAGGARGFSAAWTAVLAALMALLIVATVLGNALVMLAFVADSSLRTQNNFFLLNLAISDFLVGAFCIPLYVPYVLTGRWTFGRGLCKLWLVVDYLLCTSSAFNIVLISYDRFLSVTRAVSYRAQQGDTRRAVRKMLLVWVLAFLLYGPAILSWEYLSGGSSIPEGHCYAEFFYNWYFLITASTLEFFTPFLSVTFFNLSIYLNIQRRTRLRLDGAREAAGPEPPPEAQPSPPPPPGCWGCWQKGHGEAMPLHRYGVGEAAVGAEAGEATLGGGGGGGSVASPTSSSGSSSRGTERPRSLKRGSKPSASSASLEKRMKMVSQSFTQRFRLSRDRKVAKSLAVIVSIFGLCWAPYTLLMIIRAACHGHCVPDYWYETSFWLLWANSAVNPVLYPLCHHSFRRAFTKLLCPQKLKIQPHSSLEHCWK

SMILES	IC50 [µM]
CN1CC2CN(c3nc4ncc(Cl)cc4n4cnnc34)CC2C1 (stereo not shown) [Compound 70, 8-Chloro-4-(5-methylhexahydropyrrolo[3,4-c]pyrrole-2(1H)-yl)pyrido[2,3-e][1,2,4]triazolo[4,3-a]pyrazine]	> 100
Clc1cnc2nc(N3CCN(C4CC4)CC3)c3nncn3c2c1 [Compound 76, 8-Chloro-4-(4-cyclopropylpiperazin-1-yl)pyrido[2,3-e][1,2,4]triazolo[4,3-a]pyrazine]	> 100
Clc1cnc2nc(N3CC4CCCNC4C3)c3nncn3c2c1 (stereo not shown) [Compound 82, 8-Chloro-4-(hexahydro-1H-pyrrolo[3,4-b]pyridin-6(2H)-yl)pyrido[2,3-e][1,2,4]triazolo[4,3-a]pyrazine]	> 100
CNC1CN(c2nc3ncc(Cl)cc3c3nc(C)nn23)C1 [Compound 33, 1-(9-Chloro-2-methylpyrido[3,2-e][1,2,4]triazolo[1,5-c]pyrimidin-5-yl)-N-methylazetidin-3-amine]	> 100
CN1CC2CN(c3nc4ncc(Br)cc4n4cnnc34)CC2C1 (stereo not shown) [Compound 71, 8-Bromo-4-(5-methylhexahydropyrrolo[3,4-c]pyrrole-2(1H)-yl)pyrido[2,3-e][1,2,4]triazolo[4,3-a]pyrazine]	> 100
Clc1cnc2nc(N3CCNCC3)n3ncnc3c2c1 [Compound 37, 9-Chloro-5-(piperazin-1-yl)pyrido[3,2-e][1,2,4]triazolo[1,5-c]pyrimidine]	> 100
CCc1nc2c3cc(Cl)cnc3nc(N3CCN(C)CC3)n2n1 [Compound 41, 9-Chloro-2-ethyl-5-(4-methylpiperazin-1-yl)pyrido[3,2-e][1,2,4]triazolo[1,5-c]pyrimidine]	> 100
CC1(N)CN(c2nc3ncc(Br)cc3n3cnnc23)C1 [Compound 72, 1-(8-Bromopyrido[2,3-e][1,2,4]triazolo[4,3-a]pyrazin-4-yl)-3-methylazetidin-3-amine]	> 100
CNC1CN(c2nc3ncc(O)cc3n3cnnc23)C1 [Compound 57, 4-(3-(Methylamino)azetidin-1-yl)pyrido[2,3-e][1,2,4]triazolo[4,3-a]pyrazin-8-ol]	> 100
CNC1(C)CN(c2nc3ncc(Br)cc3n3cnnc23)C1 [Compound 73, 1-(8-Bromopyrido[2,3-e][1,2,4]triazolo[4,3-a]pyrazin-4-yl)-N,3-dimethylazetidin-3-amine]	> 100
CNC1CN(c2nc3ncc(Cl)cc3c3ncnn23)C1 [Compound 36, 1-(9-Chloropyrido[3,2-e][1,2,4]triazolo[1,5-c]pyrimidin-5-yl)-N-methylazetidin-3-amine]	> 100
CN1CCN(c2nc3cc(Cl)cnc3n3cnnc23)CC1 [Compound 5, 3-Chloro-6-(4-methylpiperazin-1-yl)pyrido[3,2-e][1,2,4]triazolo[4,3-a]pyrazine]	> 100
CN1CCCC2CN(c3nc4ncc(Cl)cc4n4cnnc34)CC21 (stereo not shown) [Compound 83, 8-Chloro-4-(1-methylhexahydro-1H-pyrrolo[3,4-b]pyridin-6(2H)-yl)pyrido[2,3-e][1,2,4]triazolo[4,3-a]pyrazine]	> 100
CNC1CN(c2nc3ncc(Br)cc3c3cc(C)nn23)C1 [Compound 109, 1-(9-bromo-2-methylpyrazolo[1,5-c]pyrido[3,2-e]pyrimidin-5-yl)-N-methylazetidin-3-amine]	> 100
CNC1CN(c2nc3ncc(Br)cc3n3cccc23)C1 [Compound 115, 1-(2-bromopyrido[2,3-e]pyrrolo[1,2-a]pyrazin-6-yl)-N-methylazetidin-3-amine]	> 100
CN(C)C1CN(c2nc3ncc(Br)cc3n3cnnc23)C1 [Compound 85, 1-(8-Bromopyrido[2,3-e][1,2,4]triazolo[4,3-a]pyrazin-4-yl)-N,N-dimethylazetidin-3-amine]	> 100
CNC1CN(c2nc3ncc(-c4ccccc4)cc3n3cnnc23)C1 [Compound 113, N-methyl-1-(8-phenylpyrido[2,3-e][1,2,4]triazolo[4,3-a]pyrazin-4-yl)azetidin-3-amine]	> 100

The next lines start with the values.

IC50 [µM]	SMILES
> 100	Cc1nnc2c(N3CCNCC3)nc3ncc(Cl)cc3n12 [Compound 15, 8-Chloro-1-methyl-4-(piperazin-1-yl)pyrido[2,3-e][1,2,4]triazolo[4,3-a]pyrazine]
> 100	N[C@@H]1CCN(c2nc3ncc(Cl)cc3n3cnnc23)C1 [Compound 30, (R)-1-(8-chloropyrido[2,3-e][1,2,4]triazolo[4,3-a]pyrazin-4-yl)pyrrolidin-3-amine]
> 100	CNC1CN(C2=Nc3ncc(Br)cc3N3C[C@H](C)N=C23)C1 [Compound 105, (S)-1-(8-bromo-2-methyl-1,2-dihydroimidazo[1,2-a]pyrido[2,3-e]pyrazin-4-yl)-N-methylazetidin-3-amine]
> 100	CN1CCN(c2nc3cccnc3n3cnnc23)CC1 [Compound 6, 6-(4-Methylpiperazin-1-yl)pyrido[3,2-e][1,2,4]triazolo[4,3-a]pyrazine]
> 100	CNC1CN(c2nc3ncc(N)cc3n3cnnc23)C1 [Compound 112, 4-(3-(methylamino)azetidin-1-yl)pyrido[2,3-e][1,2,4]triazolo[4,3-a]pyrazin-8-amine]
> 100	CNC1CN(C2=Nc3ncc(Br)cc3N3C[C@@H](C)N=C23)C1 [Compound 106, (R)-1-(8-bromo-2-methyl-1,2-dihydroimidazo[1,2-a]pyrido[2,3-e]pyrazin-4-yl)-N-methylazetidin-3-amine]
> 100	CN[C@@H]1CCN(c2nc3ncc(Br)cc3n3cnnc23)C1 [Compound 81, (R)-1-(8-bromopyrido[2,3-e][1,2,4]triazolo[4,3-a]pyrazin-4-yl)-N-methylpyrrolidin-3-amine]
> 100	CN1CCN(c2nc3ncccc3n3cnnc23)CC1 [Compound 3, 4-(4-Methylpiperazin-1-yl)pyrido[2,3-e][1,2,4]triazolo[4,3-a]pyrazine]
87	CNC1CN(c2nc3ncc(Cl)cc3n3nc(C)nc23)C1 [Compound 97, 1-(8-Chloro-2-methylpyrido[2,3-e][1,2,4]triazolo[1,5-a]pyrazin-4-yl)-N-methylazetidin-3-amine]
> 100	CN[C@@H]1CCN(c2nc3ncc(Cl)cc3n3cnnc23)C1 [Compound 10, (R)-1-(8-chloropyrido[2,3-e][1,2,4]triazolo[4,3-a]pyrazin-4-yl)-N-methylpyrrolidin-3-amine]
> 100	CN(C)[C@@H]1CCN(c2nc3ncc(Cl)cc3n3cnnc23)C1 [Compound 9, (R)-1-(8-chloropyrido[2,3-e][1,2,4]triazolo[4,3-a]pyrazin-4-yl)-N,N-dimethylpyrrolidin-3-amine]
> 100	CNC1CN(c2nc3ncc(Cl)cc3c3cn(C)nc23)C1 [Compound 44, 1-(8-Chloro-2-methyl-2H-pyrazolo[3,4-c][1,8]naphthylidine-4-yl)-N-methylazetidin-3-amine]
> 100	CN(C)C1CN(c2nc3ncc(Cl)cc3n3cnnc23)C1 [Compound 84, 1-(8-Chloropyrido[2,3-e][1,2,4]triazolo[4,3-a]pyrazin-4-yl)-N,N-dimethylazetidin-3-amine]
> 100	CN[C@@H]1CCN(c2nc3cc(Cl)cnc3n3cnnc23)C1 [Compound 11, (R)-1-(3-chloropyrido[3,2-e][1,2,4]triazolo[4,3-a]pyrazin-6-yl)-N-methylpyrrolidin-3-amine]
> 100	CNC1CN(c2nc3ncc(Br)cc3n3cc(C)nc23)C1 [Compound 108, 1-(8-bromo-2-methylimidazo[1,2-a]pyrido[2,3-e]pyrazin-4-yl)-N-methylazetidin-3-amine]
> 100	CNC1CN(c2nc3nc(C)c(Br)cc3n3cnnc23)C1 [Compound 99, 1-(8-bromo-7-methylpyrido[2,3-e][1,2,4]triazolo[4,3-a]pyrazin-4-yl)-N-methylazetidin-3-amine]
> 100	CCc1cnc2nc(N3CC(NC)C3)c3nncn3c2c1 [Compound 56, 1-(8-Ethylpyrido[2,3-e][1,2,4]triazolo[4,3-a]pyrazin-4-yl)-N-methylazetidin-3-amine]
> 100	COc1nc2nc(N3CCNCC3)c3nncn3c2cc1Cl [Compound 61, 8-Chloro-7-methoxy-4-(piperazin-1-yl)pyrido[2,3-e][1,2,4]triazolo[4,3-a]pyrazine]
> 100	Clc1cnc2nc(N3CCCNCC3)c3nncn3c2c1 [Compound 79, 8-Chloro-4-(1,4-diazepan-1-yl)pyrido[2,3-e][1,2,4]triazolo[4,3-a]pyrazine]
> 100	Cc1nc2c(N3CC(N(C)C(=O)OC(C)(C)C)C3)nc3ncc(Cl)cc3c2o1 [Compound 90, tert-Butyl (1-(8-chloro-2-methyloxazolo[4,5-c][1,8]naphthylidine-4-yl)azetidin-3-yl)(methyl)carbamate]
> 100	OCCNc1nc2ncc(Cl)cc2n2cnnc12 [Compound 87, 2-((8-Chloropyrido[2,3-e][1,2,4]triazolo[4,3-a]pyrazin-4-yl)amino)ethanol]
> 100	NC1CN(c2nc3ncc(Cl)cc3n3cnnc23)C1 [Compound 8, 1-(8-Chloropyrido[2,3-e][1,2,4]triazolo[4,3-a]pyrazin-4-yl)azetidin-3-amine]
> 100	CNC1CN(c2nc3ncc(-c4ccco4)cc3n3cnnc23)C1 [Compound 114, 1-(8-(furan-2-yl)pyrido[2,3-e][1,2,4]triazolo[4,3-a]pyrazin-4-yl)-N-methylazetidin-3-amine]
